The target of the experiment is MAT2A (Homo sapiens (Human), UniProt P31153). Briefly: MAT2A biochemical test (inorganic phosphate colorimetric, PiColorLock). The following applies: read-out: MAT2A inhibitory Activity IC50. From the text:
Test Example 1. Biochemical Test
The brief introduction of the test principle: L-methionine and ATP can be converted into SAM, inorganic phosphate, and inorganic diphosphate under the catalysis of MAT2A enzymes. The content of inorganic phosphate in the sample can be quantitatively determined by adding a developer such as ammonium molybdate or the like to the enzymatic reaction mixture, thereby reflecting the enzymatic activity of MAT2A.
Reference: The experiment referred to the method disclosed in patent WO2018045071.
Material: MAT2A screening kits were purchased from BPS bioscience (U.S.); 384-well plates were purchased from Corning Company (U.S.). • 1. MAT2A protein (Pharmaron Beijing Co., Ltd.); • 2. L-methionine (Sigma #M9625-5G) • 3. ATP (Sigma #A7699-1G) • 4. KCl (Sigma #60142-500ML-F) • 5. Tris (Sigma #T2663-1L) • 6. MgCl2 (Sigma #M1028) • 7. EDTA (Invitrogen #AM9260G) • 8. BSA (Sangon Biotech #A500023-0100) • 9. PiColorLock (abcam #ab270004)
Detection method: In the experimental group, the test compound was dissolved in DMSO, diluted to a final concentration of 10 μM using Echo, and diluted 3-fold. 80 nL of the dilution was transferred to a 384-well plate.
The experimental buffer (50 mM Tris, 50 mM KCl, 15 mM MgCl2, 100 μM EDTA, 0.005% BSA) was prepared. The MAT2A protein was diluted with the experimental buffer (at final concentration of […]). 40 μL of 2×MAT2A solution was added to the 384-well plate. The plate was centrifuged at 1000 rpm for 1 min and incubated at room temperature for 120 min.
L-methionine and ATP (the final concentration of L-methionine was […] and the final concentration of ATP was 400 μM) were diluted with the experimental buffer. 40 μL of 2×L-methionine and ATP solution was added to initiate the reaction. The plate was centrifuged at 1000 rpm for 1 min and incubated at room temperature for 90 min.
The PiColorLock™ reaction catalyst was mixed with the PiColorLock™ buffer at a ratio of 1:100 according to the instructions. 20 μL was added to each well, and the plate was shaken for 30 s. 8 μL stabilizing reagent was added, and the plate was shaken for 30 s. The signal values were measured after 30 min of incubation at room temperature.
A negative control group and a positive control group were respectively used as Bottom and Top. The negative control group was not added with MAT2A protein, and other operations were consistent with those of the experimental group. The positive control group was not added with the test compound, only added with DMSO in the same volume, and other operations were consistent with those of the experimental group.
The % Compound inhibition was calculated and fitted to give the IC50 of the compound.
% Compound inhibition=1-100%×(Signal−Bottom)/(Top−Bottom).
Signal referred to the signal value of the experimental group, Bottom referred to the average signal value of the negative control group, and Top referred to the average signal value of the positive control group.
Under the condition of this experiment, the inhibitory effect of the test compound on MAT2A can be expressed as the IC50 of the inhibition on the phosphate production level during the enzymatic reaction.

These results are taken from US20240124454A1, “TRICYCLIC COMPOUND AND USE THEREOF” (NANJING ZAIMING PHARMACEUTICAL CO., LTD., priority 2020, published 2024).

Where two headings read alike, the source gives them in different places.

Sequence of MAT2A (P31153 whole entry): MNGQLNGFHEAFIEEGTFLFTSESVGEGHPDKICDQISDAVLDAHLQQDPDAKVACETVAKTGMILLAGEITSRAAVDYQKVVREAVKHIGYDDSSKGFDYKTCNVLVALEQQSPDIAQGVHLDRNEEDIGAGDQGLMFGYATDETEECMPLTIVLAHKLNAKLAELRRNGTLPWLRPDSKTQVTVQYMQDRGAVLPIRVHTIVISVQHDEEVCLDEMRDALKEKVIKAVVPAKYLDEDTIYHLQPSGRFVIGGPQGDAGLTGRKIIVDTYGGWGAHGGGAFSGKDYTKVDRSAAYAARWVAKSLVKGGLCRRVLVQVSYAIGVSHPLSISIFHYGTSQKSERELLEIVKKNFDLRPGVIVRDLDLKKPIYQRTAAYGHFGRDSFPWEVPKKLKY

`Cc1cnccc1-n1c(=O)c2ncn(C)c2c2ccc(C(F)(F)F)nc21` [Compound 27, 1-methyl-5-(3-methylpyridin-4-yl)-7-(trifluoromethyl)-1,5-dihydro-4H-imidazo[4,5-c][1,8]naphthyridin-4-one]: the concentration for half-maximal inhibition (IC50) is 500 to 1000 nM (class symbols) and 819 nM (numeric values).

In the case of `Cc1ccncc1-n1c(=O)c2ncn(C)c2c2ccc(C(F)(F)F)nc21` [Compound 28, 1-methyl-5-(4-methylpyridin-3-yl)-7-(trifluoromethyl)-1,5-dihydro-4H-imidazo[4,5-c][1,8]naphthyridin-4-one], the IC50 (class symbols) lay in the range of 100 to 500 nM and the half-maximal inhibitory concentration (IC50) (numeric values) stood at 165 nM.

Turning to `Cc1ccccc1-n1c(=O)c2ncn(C)c2c2ccc(C(F)(F)F)nc21` [Compound 31, 1-methyl-5-(2-methylphenyl)-7-(trifluoromethyl)-1,5-dihydro-4H-imidazo[4,5-c][1,8]naphthyridin-4-one], the 50% inhibitory concentration (IC50) is 100 to 500 nM (class symbols) and 159 nM (numeric values).

As to `Cn1cnc2c(=O)n(-c3ccc(F)cc3Cl)c3nc(C(F)(F)F)ccc3c21` [Compound 32, 5-(2-chloro-4-fluorophenyl)-1-methyl-7-(trifluoromethyl)-1,5-dihydro-4H-imidazo[4,5-c][1,8]naphthyridin-4-one], the IC50 was 100 to 500 nM (class symbols) and 119 nM (numeric values).

As for `COc1ccccc1-n1c(=O)c2ncn(C)c2c2ccc(C(F)(F)F)nc21` [Compound 33, 5-(2-methoxyphenyl)-1-methyl-7-(trifluoromethyl)-1,5-dihydro-4H-imidazo[4,5-c][1,8]naphthyridin-4-one], the IC50 (class symbols) is less than 100 nM and the IC50 (numeric values) was 67.6 nM.

Turning to `CC(C)c1ccccc1-n1c(=O)c2ncn(C)c2c2ccc(C(F)(F)F)nc21` [Compound 34, 5-(2-isopropylphenyl)-1-methyl-7-(trifluoromethyl)-1,5-dihydro-4H-imidazo[4,5-c][1,8]naphthyridin-4-one], the 50% inhibitory concentration (IC50) runs as follows: (class symbols) less than 100 nM; (numeric values) 73.1 nM.

`O=c1c2ncn(CCO)c2c2ccc(C(F)(F)F)nc2n1-c1ccccc1Cl` [Compound 50, 5-(2-chlorophenyl)-1-(2-hydroxyethyl)-7-(trifluoromethyl)-1,5-dihydro-4H-imidazo[4,5-c][1,8]naphthyridin-4-one]: the IC50 reads like this: (class symbols) 100 to 500 nM; (numeric values) 113 nM.

Regarding `O=c1c2ocnc2c2ccc(C(F)(F)F)nc2n1-c1ccccc1Cl` [Compound 51, 5-(2-chlorophenyl)-7-(trifluoromethyl)oxazolo[5,4-c][1,8]naphthyridin-4(5H)-one], the IC50 reads like this: (class symbols) 100 to 500 nM; (numeric values) 182 nM.

On to `Cn1cnc2c(=O)n(-c3cccc(C#N)c3)c3nc(C(F)(F)F)ccc3c21` [Compound 52, 3-(1-methyl-4-oxo-7-(trifluoromethyl)-1,4-dihydro-5H-imidazo[4,5-c][1,8]naphthyridin-5-yl)benzonitrile], for which the IC50 is, setting by setting: (class symbols) less than 100 nM; (numeric values) 47.2 nM.

Turning to `CN(C)CCn1cnc2c(=O)n(-c3ccccc3Cl)c3nc(C(F)(F)F)ccc3c21` [Compound 53, 5-(2-chlorophenyl)-1-(2-(dimethylamino)ethyl)-7-(trifluoromethyl)-1,5-dihydro-4H-imidazo[4,5-c][1,8]naphthyridin-4-one], the IC50 by setting is: (class symbols) 100 to 500 nM; (numeric values) 314 nM.

On to `CNCCn1cnc2c(=O)n(-c3ccccc3Cl)c3nc(C(F)(F)F)ccc3c21` [Compound 54, 5-(2-chlorophenyl)-1-(2-(methylamino)ethyl)-7-(trifluoromethyl)-1,5-dihydro-4H-imidazo[4,5-c][1,8]naphthyridin-4-one], for which the IC50 is, setting by setting: (class symbols) 500 to 1000 nM; (numeric values) 530 nM.

In the case of `NCCn1cnc2c(=O)n(-c3ccccc3Cl)c3nc(C(F)(F)F)ccc3c21` [Compound 55, 1-(2-aminoethyl)-5-(2-chlorophenyl)-7-(trifluoromethyl)-1,5-dihydro-4H-imidazo[4,5-c][1,8]naphthyridin-4-one], the half-maximal inhibitory concentration (IC50) (class symbols) lay within 100 to 500 nM and the IC50 (numeric values) turned out to be 296 nM.

Regarding `Cc1ccc2c3c(ncn3C)c(=O)n(-c3ccccc3Cl)c2n1` [Compound 56, 5-(2-chlorophenyl)-1,7-dimethyl-1,5-dihydro-4H-imidazo[4,5-c][1,8]naphthyridin-4-one], the half-maximal inhibitory concentration (IC50) (class symbols) was less than 100 nM and the IC50 (numeric values) stood at 73.7 nM.

Take `COc1ccc(-n2c(=O)c3ncn(C)c3c3ccc(C(F)(F)F)nc32)cc1` [Compound 59, 5-(4-methoxyphenyl)-1-methyl-7-(trifluoromethyl)-1,5-dihydro-4H-imidazo[4,5-c][1,8]naphthyridin-4-one]: the half-inhibitory concentration (IC50) runs as follows: (class symbols) 100 to 500 nM; (numeric values) 252 nM.

On to `Cn1nccc1-n1c(=O)c2ncn(C)c2c2ccc(C(F)(F)F)nc21` [Compound 60, 1-methyl-5-(1-methyl-1H-pyrazol-5-yl)-7-(trifluoromethyl)-1,5-dihydro-4H-imidazo[4,5-c][1,8]naphthyridin-4(5H)-one], for which, where the note is “class symbols”, the IC50 is 100 to 500 nM.

Consider `CCn1cnc2c(=O)n(-c3ccccc3Cl)c3nc(C(F)(F)F)ccc3c21` [Compound 61, 5-(2-chlorophenyl)-1-ethyl-7-(trifluoromethyl)-1,5-dihydro-4H-imidazo[4,5-c][1,8]naphthyridin-4-one], for which the IC50 is, setting by setting: (class symbols) 100 to 500 nM; (numeric values) 102 nM.

Take `Cn1cnc2c(=O)n(-c3ccc(Cl)cc3Cl)c3nc(C(F)(F)F)ccc3c21` [Compound 62, 5-(2,4-dichlorophenyl)-1-methyl-7-(trifluoromethyl)-1,5-dihydro-4H-imidazo[4,5-c][1,8]naphthyridin-4-one]: the half-maximal inhibitory concentration (IC50) (class symbols) lay in the range of 100 to 500 nM and the 50% inhibitory concentration (IC50) (numeric values) turned out to be 251 nM.

Turning to `Cn1cnc2c(=O)n(-c3cccc(F)c3)c3nc(C(F)(F)F)ccc3c21` [Compound 63, 5-(3-fluorophenyl)-1-methyl-7-(trifluoromethyl)-1,5-dihydro-4H-imidazo[4,5-c][1,8]naphthyridin-4-one], the IC50 is, setting by setting: (class symbols) less than 100 nM; (numeric values) 48.1 nM.

With `Cn1cnc2c(=O)n(-c3cccc(F)c3Cl)c3cc(C(F)(F)F)ccc3c21` [Compound 66, 5-(2-chloro-3-fluorophenyl)-1-methyl-7-(trifluoromethyl)-1,5-dihydro-4H-imidazo[4,5-c]quinolin-4-one], the half-maximal inhibitory concentration (IC50) reads like this: (class symbols) less than 100 nM; (numeric values) 47.3 nM.

As to `Cn1cnc2c(=O)n(-c3ccc(OC(F)F)cn3)c3nc(C(F)(F)F)ccc3c21` [Compound 69, 5-(5-(difluoromethoxy)pyridin-2-yl)-1-methyl-7-(trifluoromethyl)-1,5-dihydro-4H-imidazo[4,5-c][1,8]naphthyridin-4-one], the IC50 is 100 to 500 nM (class symbols) and 282 nM (numeric values).

In the case of `Cn1cnc2c(=O)n(-c3ccc(OC(F)F)c(F)c3)c3nc(C(F)(F)F)ccc3c21` [Compound 71, 5-[4-(difluoromethoxy)-3-fluorophenyl]-1-methyl-7-(trifluoromethyl)-1,5-dihydro-4H-imidazo[4,5-c][1,8]naphthyridin-4-one], the concentration for half-maximal inhibition (IC50) is, setting by setting: (class symbols) 500 to 1000 nM; (numeric values) 978 nM.

Take `Cc1ncccc1-n1c(=O)c2ncn(Cc3cnn(C)c3)c2c2ccc(C(F)(F)F)nc21` [Compound 74, 1-((1-methyl-1H-pyrazol-4-yl)methyl)-5-(2-methylpyridin-3-yl)-7-(trifluoromethyl)-1,5-dihydro-4H-imidazo[4,5-c][1,8]naphthyridin-4-one]: the IC50 (class symbols) lay in the range of 100 to 500 nM and the 50% inhibitory concentration (IC50) (numeric values) was determined as 140 nM.

Consider `Cc1ncccc1-n1c(=O)c2ncn(C)c2c2cnc(C(F)(F)F)nc21` [Compound 75, 1-methyl-5-(2-methylpyridin-3-yl)-7-(trifluoromethyl)-1,5-dihydro-4H-imidazo[4′,5′:4,5]pyrido[2,3-d]pyrimidin-4-one], for which the IC50 reads like this: (class symbols) less than 100 nM; (numeric values) 71.7 nM.

Turning to `Cn1cnc2c(=O)n(-c3cncnc3)c3nc(C(F)(F)F)ccc3c21` [Compound 76, 1-methyl-5-(pyrimidin-5-yl)-7-(trifluoromethyl)-1,5-dihydro-4H-imidazo[4,5-c][1,8]naphthyridin-4-one], the concentration for half-maximal inhibition (IC50) by setting is: (class symbols) 100 to 500 nM; (numeric values) 201 nM.

The term IC50 denotes the concentration at which inhibition is half-maximal.
